# From paper PMC11845477, “Exploring the principles behind antibiotics with limited resistance” (Nature Communications, 2025)
# Tests used:
# [1] = system: K. pneumoniae ATCC 10031 (SEN) and K. pneumoniae ATCC 700603 (MDR); experiment: Adaptive laboratory evolution (ALE), relative MIC of evolved lines; format: cell-based, Klebsiella pneumoniae
# How it was run: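 Ten parallel populations per antibiotic–ancestor pair were evolved in MHB at 37 °C, starting near 50% growth-inhibiting drug. Every 72 h they were passaged into 0.5–2.5× increasing concentrations, keeping the highest-drug well with OD600 > 0.2.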
# [2] = system: P. aeruginosa ATCC BAA-3107 (SEN) and P. aeruginosa LESB58 (MDR); experiment: microbe, parasite or virus in culture; format: cell-based, Pseudomonas aeruginosa
# How it was run: (§1)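 Cation-adj. MHB2 (not for SCH79797); 11–16-step dilution series; 5 × 10^5 cells/mL; 37 °C, shaking, 18 h; duplicates. Growth by OD600; MIC at OD600 < 0.05. Relative MIC: evolved vs ancestor.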
# [3] = system: K. pneumoniae ATCC 10031 (SEN) and K. pneumoniae ATCC 700603 (MDR); experiment: microbe, parasite or virus in culture; format: cell-based, Klebsiella pneumoniae
# How it was run: as §1
substance,measurement,setting,value
polymyxin-B,MIC of evolved line,"[1]; KP-MDR ATCC 700603, evolved line 1",512 µg/mL
same,MIC of evolved line,"[1]; KP-MDR ATCC 700603, evolved line 2",512 µg/mL
same,MIC of evolved line,"[1]; KP-MDR ATCC 700603, evolved line 3",256 µg/mL
same,MIC of evolved line,"[1]; KP-MDR ATCC 700603, evolved line 4",256 µg/mL
same,MIC of evolved line,"[1]; KP-MDR ATCC 700603, evolved line 5",256 µg/mL
same,MIC of evolved line,"[1]; KP-MDR ATCC 700603, evolved line 6",256 µg/mL
same,MIC of evolved line,"[1]; KP-MDR ATCC 700603, evolved line 7",256 µg/mL
same,MIC of evolved line,"[1]; KP-MDR ATCC 700603, evolved line 8",512 µg/mL
same,MIC of evolved line,"[1]; KP-MDR ATCC 700603, evolved line 9",256 µg/mL
same,MIC of evolved line,"[1]; KP-MDR ATCC 700603, evolved line 10",256 µg/mL
same,MIC of evolved line,"[1]; KP-SEN (K. pneumoniae ATCC 10031), evolved line 1 of the given antibiotic",512 µg/mL
same,MIC of evolved line,"[1]; KP-SEN (K. pneumoniae ATCC 10031), evolved line 2 of the given antibiotic",1020 µg/mL
same,MIC of evolved line,"[1]; KP-SEN (K. pneumoniae ATCC 10031), evolved line 3 of the given antibiotic",1020 µg/mL
same,MIC of evolved line,"[1]; KP-SEN (K. pneumoniae ATCC 10031), evolved line 4 of the given antibiotic",256 µg/mL
same,MIC of evolved line,"[1]; KP-SEN (K. pneumoniae ATCC 10031), evolved line 5 of the given antibiotic",1020 µg/mL
same,MIC of evolved line,"[1]; KP-SEN (K. pneumoniae ATCC 10031), evolved line 7 of the given antibiotic",256 µg/mL
same,MIC of evolved line,"[1]; KP-SEN (K. pneumoniae ATCC 10031), evolved line 8 of the given antibiotic",256 µg/mL
same,MIC of evolved line,"[1]; KP-SEN (K. pneumoniae ATCC 10031), evolved line 9 of the given antibiotic",1020 µg/mL
same,MIC of evolved line,"[1]; KP-SEN (K. pneumoniae ATCC 10031), evolved line 10 of the given antibiotic",32 µg/mL
same,MIC of ancestor,"[2]; P. aeruginosa ATCC BAA 3107 (PA-SEN), ancestor strain, sheet fig 2a",1 µg/mL
same,MIC of ancestor,"[2]; P. aeruginosa LESB 58 (PA-MDR), ancestor strain, sheet fig 2a",2 µg/mL
same,MIC of ancestor,"[2]; Pseudomonas aeruginosa LESB 58 (PA-MDR), ancestor",2 µg/mL
same,MIC of ancestor,[2]; ancestor PA-MDR (Pseudomonas aeruginosa LESB 58),2 µg/mL
same,MIC of ancestor,[2]; ancestor PA-SEN (Pseudomonas aeruginosa ATCC BAA 3107),1 µg/mL
same,MIC of ancestor,"[3]; Klebsiella pneumoniae ATCC 10031 (KP-SEN), ancestor strain, sheet fig 2a",2 µg/mL
same,MIC of ancestor,"[3]; Klebsiella pneumoniae ATCC 700603 (KP-MDR), ancestor",1 µg/mL
same,MIC of ancestor,"[3]; Klebsiella pneumoniae ATCC 700603 (KP-MDR), ancestor strain, sheet fig 2a",1 µg/mL
same,MIC of ancestor,[3]; ancestor KP-SEN (Klebsiella pneumoniae ATCC 10031),2 µg/mL
